The source of these data is article PMC6539868, “Syntheses and Biological Studies of Cu(II) Complexes Bearing Bis(pyrazol-1-yl)- and Bis(triazol-1-yl)-acetato Heteroscorpionate Ligands” (Molecules, 2019).

Where two headings read alike, the source gives them in different places.

One data set deals with 2008. Kind of data set: MTT cytotoxicity assay, 2D monolayer. It is filed as cell-based, human. The conditions noted are these: 72 h, MTT test, ovarian cancer, read-out: IC50 (µM) ± S.D. 2008. The text has this:
(§1) Human lung (A549), colon (HCT-15 and LoVo) and breast (MCF-7) carcinoma cell lines were obtained from American Type Culture Collection (ATCC, Rockville, MD, USA). Human pancreatic BxPC3 carcinoma cells were obtained from European Collection of Cell Culture (ECACC, Salisbury, UK). Human ovarian 2008 cancer cells were kindly provided by Prof. G. Marverti (Dept. of Biomedical Science of Modena University, Modena, Italy). Human squamous cervical A431 carcinoma cells were kindly provided by Prof. F. Zunino (Division of Experimental Oncology B, Istituto Nazionale dei Tumori, Milan, Italy). The LoVo-OXP cells were obtained as previously described. Cell lines were maintained in culture in the logarithmic phase at 37 °C in a 5% carbon dioxide atmosphere using the following media added of 10% fetal calf serum (Euroclone, Milan, Italy), antibiotics (50 units/mL penicillin and 50 μg/mL streptomycin), and 2 mM L-glutamine: (i) RPMI-1640 medium (Euroclone) for HCT-15, A431, MCF-7, BxPC3 and 2008 cells; (ii) F-12 HAM’S (Sigma Chemical Co.) for A549, LoVo and LoVo-OXP cells.
(§2) The growth inhibitory effect towards 2D tumor cell lines was evaluated by means of MTT assay as previously described. IC50 values were calculated by four parameters logistic (4-PL) model. All the values are the means ± SD of not less than five measurements starting from three different cell cultures.
(§3) The in vitro antitumor activity of copper(II) complexes 1–3 and the uncoordinated ligands [HC(COOH)(pz^Me2)2], [HC(COOH)(pz)2] and [HC(COOH)(tz)2] was evaluated against a panel of human cancer cell lines derived from solid tumors. Adherent cell lines representative of cervical (A431), pancreatic (BxPC3) colon (HCT-15), breast (MCF-7), lung (A549), and ovarian (2008) cancers, differently sensitive to cisplatin, were exposed to the indicated compounds for 72 h.

The next data set deals with A431. In words: MTT cytotoxicity assay, 2D monolayer. It is filed as cell-based, human. The settings on record: 72 h, MTT test, cervical carcinoma; read-out: IC50 (µM) ± S.D. A431.
Text: as §1, §2, §3

In the next data set the test system is A549. In words: MTT cytotoxicity assay, 2D monolayer. The format is cell-based, human. The conditions noted are these: 72 h, MTT test, lung carcinoma, read-out: IC50 (µM) ± S.D. A549.
Text: as §1, §2, §3

For the next data set, the system named is BxPC3. In words: MTT cytotoxicity assay, 2D monolayer. The format is cell-based, human. The settings on record: 72 h, MTT test, pancreatic carcinoma; read-out: IC50 (µM) ± S.D. BxPC3.
Text: as §1, §2, §3

The subject of the next data set is HCT-15. Kind of data set: MTT cytotoxicity assay, 2D monolayer. It is filed as cell-based, human. The settings on record: 72 h, MTT test, colon carcinoma, read-out: IC50 (µM) ± S.D. HCT-15.
Text: as §1, §2, §3

The next data set concerns MCF-7. Kind of data set: MTT cytotoxicity assay, 2D monolayer. The format is cell-based, human. The settings on record: 72 h, MTT test, breast carcinoma, read-out: IC50 (µM) ± S.D. MCF-7.
Text: as §1, §2, §3

For data set [1], the system named is HCT-15 colon cancer cell spheroids. Kind of data set: Acid phosphatase (APH) assay in 3D spheroids. The format is cell-based, human. The settings on record: 72 h, APH test, read-out: IC50 (µM) ± S.D. HCT-15 spheroids. As for the experimental part: Spheroid cultures were obtained by seeding 2.5 × 10^3 HCT-15 cells/well in round bottom non-tissue culture treated 96 well-plate (Greiner Bio-one, Kremsmünster, Austria) in phenol red free RPMI-1640 medium (Sigma Chemical Co.), containing 10% FCS and supplemented with 20% methyl cellulose stock solution.
An APH modified assay was used for determining cell viability in 3D spheroids, as previously described. IC50 values were calculated with a four parameter logistic (4-PL) model. All the values are the means ± SD of not less than four independent experiments.
The in vitro antitumor efficacy of the newly developed compounds was also tested on 3D colon cancer cell culture models. Differently from 2D monolayer culture, 3D spheroid cell culture systems comprise cancer cells in various cell growth stages. Consequently, the multicellular cancer spheroid model is recognized to better reflect the tumor mass in vivo regarding drug permeation, cell interactions, gene expression, hypoxia and nutrient gradients with respect to monolayer cell cultures. Table 4 summarizes the IC50 values obtained after treatment of 3D cell spheroids of human HCT-15 colon cancer cells with copper(II) compounds as well as with cisplatin, as reference drug. In accordance with 2D chemosensitivity assays, complex 3 was scarcely effective, whereas complex 1 was as effective as cisplatin. […] We hypothesize that in this non-proliferative and very resistant tumor model the higher lipophilicity of 1, due to the presence of methyl substituents on the pyrazolyl rings, might be responsible for the enhanced compound penetration in the core area of spheroids.

The test system of data set [2] is panel of human cancer cell lines derived from solid tumors. Kind of data set: MTT cytotoxicity, whole panel of human cancer cell lines. The format is cell-based. The settings on record: mean over the cell lines of Table 2, 72 h. As for the experimental part:
as §2, §3
(§4) HCT-15 colon cancer cells are notoriously poorly chemosensitive to cisplatin. […] As for cisplatin, the clinical effectiveness of OXP is seriously hampered by the cancer cell resistance and, at present, few other drug regimens are available for patients with OXP-refractory colorectal cancers. […] The RF values (calculated by dividing IC50 for resistant cells by those for sensitive ones) were about 10 times lower than that of OXP, excluding the occurrence of cross-resistance phenomena.

The subject of a further data set is LoVo-OXP. In words: MTT cytotoxicity assay, cross-resistance profile. It is filed as cell-based, human. The conditions noted are these: for IC50: 72 h, MTT test, oxaliplatin-resistant colon cancer cells, read-out: IC50 (µM) ± S.D. LoVo-OXP; for RF (resistance factor): RF = IC50 (resistant cells)/IC50 (wild-type cells).
Text: as §1, §2, §4

In another data set the test system is LoVo. Kind of data set: MTT cytotoxicity assay, cross-resistance profile. It is filed as cell-based, human. The conditions noted are these: 72 h, MTT test, oxaliplatin-sensitive colon cancer cells; read-out: IC50 (µM) ± S.D. LoVo.
Text: as §1, §2, §4

Data set [3] concerns 26S proteasome, chymotrypsin-like (CT-L) activity. Kind of data set: Proteasome inhibition, chymotrypsin-like (CT-L) activity. The format is biochemical. The settings on record: isolated 26S rabbit proteasomes, 15 μM, 60 min. As for the experimental part:
(§5) The purified rabbit 26S proteasome (Sigma Aldrich) was incubated for 60 min at 37 °C in assay buffer (50 mM Tris-HCl, pH 7.5, 250 mM sucrose, 5 mM MgCl2, 1 mM DTT, and 0.5 mM EDTA), in the presence of 15 µM of 1–3 or 10 µM Lactacystin. Afterwards, fluorogenic peptides were added and substrate hydrolysis was measured after 30 min by monitoring spectrofluorometrically the release of AMC (excitation at 370 nm, emission at 460 nm).
(§6) The ability of copper complexes to hamper the functioning of each individual proteasome active site, chymotrypsin-like (CT-L), trypsin-like (T-L), and caspase-like (C-L) activities was assessed in isolated 26S rabbit proteasomes after incubation with 15 μM of tested compounds. Lactacystin, an irreversible nonpeptidomimetic proteasome inhibitor, was used as a positive control. […] Conversely, no significant effects were recorded towards the T-L site. Even if the chymotrypsin-like sites are the major drug targets in cancer, it has been recently observed that co-targeting trypsin-like site increased cytotoxicity of copper complexes acting as proteasome inhibitors.

The subject of data set [4] is 26S proteasome, caspase-like (C-L) activity. In words: Proteasome inhibition, caspase-like (C-L) activity. The format is biochemical. The conditions noted are these: isolated 26S rabbit proteasomes, 15 μM, 60 min. As for the experimental part:
as §5, §6

A short description of a further data set: Solubility. It is filed as physicochemical.
The next data set is described as follows: Stability to air. It is filed as physicochemical. The settings on record: also as solutions.
The next data set concerns LoVo cells. In words: Cellular uptake (intracellular copper by GF-AAS). It is filed as cell-based, human. The conditions noted are these: 24 h, 2 μM. As for the experimental part: LoVo cells (2.5 × 10^6) were seeded in 75 cm^2 flasks in growth medium (20 mL). After overnight incubation, the medium was replaced, and the cells were treated with tested compounds for 24 h. Cell monolayers were then processed and mineralized as previously described. The sample was analyzed for copper by using a Varian AA Duo graphite furnace atomic absorption spectrometer (Varian, Palo Alto, CA, USA) at the wavelength of 324 nm. The calibration curve was obtained using known concentrations of standard solutions purchased from Sigma Chemical Co.
With the purpose of underling a possible correlation between cellular uptake efficiency and cytotoxicity, LoVo cells were treated for 24 h with equimolar concentrations (2 μM) of copper(II) complexes and the intracellular copper amount was quantified by means of Graphite Furnace Atomic Absorption Spectrometry (GF-AAS) analysis. […] In fact, the intracellular copper content detected in LoVo cells follows the same cytotoxicity trend 1 > 2 > 3.

Take `N.N.[Cl][Pt][Cl]` [Cisplatin, cisplatin, reference compound]: the IC50 was determined as 2.2 ± 1 µM with 2008; 1.7 ± 0.5 µM in the data set with A431; 7.5 ± 1.2 µM in the data set on A549; 7.3 ± 1.2 µM in the data set with BxPC3; 15.3 ± 2.2 µM in the data set on HCT-15; 8.8 ± 1.4 µM in the data set on MCF-7. The IC50 in data set [1] is 65.9 ± 3.85 µM; in data set [2], 7.1 µM.
`O=C1[O][Pt]2([NH][C@@H]3CCCC[C@H]3[NH]2)[O]C1=O` [Oxaliplatin, oxaliplatin, reference compound]: the IC50 amounted to 15.2 ± 2.2 µM in the data set on LoVo-OXP and 1.4 ± 0.7 µM with LoVo. Moreover, in the data set with LoVo-OXP (LoVo-OXP/LoVo), the “RF (resistance factor)” value was 10.9.
With `O=C(O)C(n1cccn1)n1cccn1` [[HC(COOH)(pz)2], bis(pyrazol-1-yl)acetic acid, reference compound], the IC50 was above 100 µM in the data set with 2008 (Homo sapiens); above 100 µM with A549 (Homo sapiens, A549); above 100 µM in the data set on HCT-15 (Homo sapiens, HCT-15); above 100 µM with MCF-7 (Homo sapiens, MCF7).
For `Cc1cc(C)n(C(C(=O)O)n2nc(C)cc2C)n1` [[HC(COOH)(pz^Me2)2], bis(3,5-dimethylpyrazol-1-yl)acetic acid, reference compound], the IC50 in the data set with 2008 (Homo sapiens) was above 100 µM; in the data set on A549 (Homo sapiens, A549), above 100 µM; in the data set on HCT-15 (Homo sapiens, HCT-15), above 100 µM; in the data set with MCF-7 (Homo sapiens, MCF7), above 100 µM.
`O=C(O)C(n1cncn1)n1cncn1` [[HC(COOH)(tz)2], bis(1,2,4-triazol-1-yl)acetic acid, reference compound]: the IC50 in the data set with 2008 (Homo sapiens) is above 100 µM; with A549 (Homo sapiens, A549) it was above 100 µM; with HCT-15 (Homo sapiens, HCT-15), above 100 µM; in the data set with MCF-7 (Homo sapiens, MCF7), above 100 µM.
In the case of `O=C(O)C(n1cccn1)n1cccn1.O=C(O)C(n1cccn1)n1cccn1.[Cu+2].[O-][Cl+3]([O-])([O-])[O-].[O-][Cl+3]([O-])([O-])[O-]` [compound 2, [HC(COOH)(pz)2]2Cu(ClO4)2], the IC50 in the data set with 2008 came to 7.9 ± 1.4 µM; in the data set with A431 it was 12.7 ± 1.2 µM; in the data set on A549, 5.5 ± 0.2 µM; in the data set on BxPC3 it was 7.5 ± 1.2 µM; in the data set with HCT-15, 9.3 ± 2.7 µM; with MCF-7 it was 10.2 ± 2.5 µM. The IC50 was determined as 4.9 ± 0.6 µM in the data set on LoVo-OXP, 4 ± 0.5 µM in the data set on LoVo, 107.8 ± 1 µM in data set [1] and 8.9 µM in [2]. Moreover, the “RF times lower than that of OXP” value with LoVo-OXP (LoVo-OXP/LoVo) was “about 10 times”. Moreover, the “RF (resistance factor)” value in the data set with LoVo-OXP (LoVo-OXP/LoVo) came out at 1.2. The “effect on CT-L proteasome activity” value in [3] was “able to affect CT-L and C-L activities, even if to a lesser extent than lactacystin”. Further, in [4], the “effect on C-L proteasome activity” value was “able to affect CT-L and C-L activities, even if to a lesser extent than lactacystin”. In the data set “Solubility” (methanol, DMSO, acetonitrile), the “solubility in methanol, DMSO and acetonitrile” value is “soluble”. For the same compound, the solubility in water entry in the data set “Solubility” (water) is listed as “soluble”. Moreover, in “Stability to air”, the air stability result is recorded as “air stable even as solutions”.
In the case of `CO.O=C(O)C(n1cncn1)n1cncn1.O=C(O)C(n1cncn1)n1cncn1.[Cu+2].[O-][Cl+3]([O-])([O-])[O-].[O-][Cl+3]([O-])([O-])[O-]` [compound 3, [HC(COOH)(tz)2]2Cu(ClO4)2·CH3OH], the IC50 in the data set with 2008 turned out to be 69.3 ± 4.7 µM; in the data set with A431, 15.9 ± 5.8 µM; with A549, 24.5 ± 1.9 µM; in the data set on BxPC3, 18.5 ± 4.4 µM; in the data set with HCT-15, 59.5 ± 2.7 µM; in the data set on MCF-7 it was 39.6 ± 4.6 µM. Also, the IC50 is 32.5 ± 1 µM in the data set on LoVo-OXP, 15.3 ± 1 µM in the data set on LoVo and above 100 µM in [1]. Moreover, in the data set on LoVo-OXP (LoVo-OXP/LoVo), the “RF (resistance factor)” value was determined as 2.1. Further, in the data set with LoVo cells, the “cellular uptake efficiency (intracellular copper amount)” value is listed as “lowest cellular uptake efficiency”. Further, the “effect on CT-L proteasome activity” value in data set [3] is “able to affect CT-L and C-L activities, even if to a lesser extent than lactacystin”. In data set [4], the “effect on C-L proteasome activity” value is “able to affect CT-L and C-L activities, even if to a lesser extent than lactacystin”. In addition, in the data set “Solubility” (DMSO), the “solubility in DMSO” value was “soluble”. For the same compound, in the data set “Stability to air”, the air stability result was “air stable even as solutions”.
